Test [1] deals with human PBMC. Description: ConA mitogen-stimulated proliferation of human PBMC ([3H]-thymidine incorporation). Particulars: for IC50: Experiment II, read-out: IC50 in inhibition of ConA induced cell proliferation of PBMC. The class given is cell-based. The method, then: Blood specimens were obtained with consent from healthy human volunteers. Human peripheral blood mononuclear cells (PBMC) were isolated from heparinised whole blood by buoyant density centrifugation over Histopaque 1077 (Sigma, Poole, UK) at 600 g for 20 minutes. PBMC harvested from the ‘buffy’ layers were washed twice with RPMI 1640 medium and resuspended in CTCM. […] Human PBMC were incubated for 48 h at 37° C. in 5% CO2-air, followed by pulsing with 0.25 μCi [^3H]-thymidine (see above). After a further incubation of 24 h cells were harvested onto fibreglass filters and then counted in the presence of MicroScint-O with the Packard TopCount.
Concanavalin induced cell proliferation of human peripheral blood mononuclear cells (PBMC) was tracked, as described in I above, by a measurement of counts per minute using the scintillation counter. The inhibitory effect of an HSL compound being tested on cell proliferation was indicated by a reduction in counts per minute. […] Columns B, C and D represent different sources of human PBMC samples used.
Plots of counts per minute (cpm) against the concentration of the quorum sensing molecules and the vehicle are shown in FIG. 11.
For orientation: Uptake of a labelled nucleoside into DNA is a usual measure of proliferation.

Test [2] concerns TNFα. Particulars: Infection and Immunity vol.66 no.1, 1998; cited from earlier work.
The subject of test [3] is murine spleen cells. The following applies: Infection and Immunity vol.66 no.1, 1998; cited from earlier work.
In test [4] the test system is IL-2. In words: IL-2 production from anti-CD3 and anti-CD28 stimulated hPBMC (sandwich ELISA). The test is classed as cell-based, human. The following applies: four donors, 24 h supernatants. The method, then:
Anti-CD3 and anti-CD28 antibodies were used to assess the effect of quorum sensing signal molecules (PQS, OdDHL and OHHL) on T-cell proliferation and IL-2 secretion. Proliferation was assessed by the incorporation of [^3H]-thymidine into the DNA of PBMC and the release of cytokines in the culture supernatants was determined by ‘sandwich’ ELISA. Blood specimens were obtained with consent from four healthy human volunteers (aged between 20 and 50 years). Human PBMC were isolated from heparinised whole blood by buoyant density centrifugation over Histopaque 1077 (Sigma, Poole, UK) at 600 g for 20 minutes. […] Following the addition of 25 μl of scintillant (MicroScint-O™; Packard Bioscience Ltd. UK) to each well in the filter plates, the radioactivity in the filters was measured with a β-scintillation counter (TopCount™, Packard Bioscience Ltd, UK) according to manufacturer's specifications. […]
When T cells in hPBMC are challenged with anti-CD3 and anti-CD28 antibodies, the cytokine IL-2 is released into the culture supernatants. The levels of cytokine produced in the culture supernatants after 24 h were determined in a ‘sandwich’ ELISA. […] Following four washes, the bound biotinylated antibody was detected with 50 μl of a 1:1,000 dilution of streptavidin-peroxidase (BD Pharmingen, UK). […]
(In general: In an ELISA, binding on a coated surface is turned into a signal by an enzyme label.)

“Also recorded” adds a separate entry of the source. Where two headings read alike, the source gives them in different places.

For the compound `CCCCCCCCCC(=O)CC(=O)N[C@H]1CCOC1=O` [Example 6], the “effect of OdDHL alone on ConA induced hPBMC proliferation” value in test [1] (6.25 μM, alone) was “inactive”. In addition, in test [1] (ConA 1 μg/ml), the “inhibition of ConA induced proliferation of human PBMC (cpm), in words” value is reported as “inhibited proliferation of human PBMC”. Also, the results for the IC50 in test [1] (human PBMC source B), in test [1] (human PBMC source C) and in test [1] (human PBMC source D) were 60 µM, 7 µM and 34 µM, respectively. Besides, the “inhibition of TNFα production by LPS-stimulated adherent murine peritoneal macrophages” value in test [2] is on record as “inhibiting”. Also, the “inhibition of ConA mitogen stimulated proliferation of murine spleen cells” value in test [3] is reported as “inhibiting”. The “inhibition of release of IL-2 from hPBMC stimulated via CD3 and CD28, in words” value in test [4] (listed as OdDHL) is on record as “inhibited in a dose dependent manner the release of IL-2; also recorded: inhibits the release of IL-2”.
Take `CCCCCCCc1[nH]c2ccccc2c(=O)c1O` [PQS]: the “inhibition of release of IL-2 from hPBMC stimulated via CD3 and CD28, in words” value in test [4] is “but not PQS, inhibits the release of IL-2”.
